Like-named read-outs stand apart in the source and are kept apart here.
Assay: Tigecycline plasma PK and % F after intraduodenal (ID) injection in anesthetized rats
Assay type: in vivo, Sprague-Dawley Rats
Conditions: female, Sprague-Dawley, rat, plasma
Method: Animals weighed approximately 250 g at the time of testing. Rats were fasted overnight (with water available), prior to dosing.
Intravenous (IV) doses were administered as a bolus injection into the left carotid […] at a dose volume of 1.6 mL/kg. Intraduodenal doses were administered as bolus injections into the duodenum at a dose volume of 1.2 mL/kg.
An additional study was conducted exploring the effect of formulation pH at constant CA and LLC concentrations (RA867).
Female rats were maintained in groups of 3 per polycarbonate (or equivalent) shoebox cage with fresh wood chip bedding at 20-22° C. under a 12 hour on/off light:dark cycle. […] After the rats went limp they were injected intraperitoneally (IP) with 0.1 mL ketamine/xylazine. The anesthetic state was maintained by IP injection of ketamine/xylazine on an as needed basis. Animal weights were determined post-anesthesia induction.
An indwelling catheter for blood sampling was inserted into the right carotid artery by exposing the trachea with Mayo scissors, clamping the bottom of the […] and tying off the top with surgical suture. The area between was nicked with small sharp scissors and Intramedic polyethylene tubing was inserted into the nicked area. The artery with the tubing was sealed with suture to prevent leakage. A 23-gauge Intramedic Luer Stub Adapter was inserted into the cannula and attached to a 3 way valve which was connected to a 3 cc syringe filled with 0.9% normal saline and a 1 cc syringe filled with 5 U/mL sodium heparin for blood sampling.
An intraduodenal injection was utilized to mimic oral delivery of an enterically coated capsule or tablet formulation. […] Mayo scissors were used to expose the duodenum and the site of administration was identified by measuring 5 cm from the junction of the stomach and the duodenum towards the jejunum. The measured site was identified by inserting a small piece of surgical suture underneath the site for injection. After the formulation was injected, the abdominal cavity was closed with surgical clips.
Blood samples were collected in tubes containing 20 μL 180 mM EDTA. The tubes were maintained on ice and then centrifuged at approximately 3000 rpm at 4° C. for 5 minutes. Plasma was harvested immediately after centrifugation of the samples and stored at −20° C. pending analysis.
Minocycline (VWR international) was used as an internal standard. Sample processing/clean-up of plasma samples was carried out offline by protein precipitation with acidified acetonitrile.
The HPLC system consisted of Shimadzu SIL-HTc HPLC system equipped with dual Shimadzu LC-10ADvp isopumps, a Shimadzu CTO-10ASvp column temperature controller and a Shimadzu SPD-10Avp variable wavelength detector. […] Mobile phase A consisted of 23 mM phosphate buffer pH 2.5 with 6 mM 1-octanesulfonic acid, while mobile phase B consisting of pure acetonitrile. […] The mobile phase flow rate was 1.2 mL/min. Detection was performed using the SPD-10Avp variable wavelength detector set at 350 nm, with a sensitivity of 0.001 aufs.
The samples were then centrifuged under refrigeration at 13 k rpm for 30 minutes. The supernatant was taken and the liquid was removed to dryness in a turbovap. The samples were then reconstituted in 55 μL 0.1M phosphate buffer, pH 3.8. Samples were maintained at 10° C. while on the autoinjector during sequence. The injection volume was 50 μL. The unknown concentration in rat plasma samples was determined by interpolation of the peak area ratios of analyte:internal standard versus the ratio of their nominal concentrations into the regression line obtained from calibration standards spiked in pooled rat plasma. No regression weighting was used for the calculations. […] The calibration curve covered the range of 0.05 μg/mL to 5.0 μg/mL.

[1] = […], RA869, ID, 400 mM CA/26 mM LLC
[2] = other: intraduodenal bolus injection, 4.8 mg/kg, ID, PBS, 4.8 mg/kg (RA851)
[3] = other: intraduodenal bolus injection, 4.8 mg/kg, pH 3.5, ID, 100 mM CA (pH 3.5), 26 mM LLC, 4.8 mg/kg (RA851)
[4] = other: intraduodenal bolus injection, 4.8 mg/kg, pH 3.5, ID, 400 mM CA (pH 3.5), 26 mM LLC, 4.8 mg/kg (RA851), parent Tigecycline peak only
[5] = other: intraduodenal bolus injection, 9 mg/kg, ID, PBS, 9.0 mg/kg (RA853), animal RA853-4 only
[6] = other: intraduodenal bolus injection, 9 mg/kg, pH 3.5, ID, 100 mM CA (pH 3.5), 26 mM LLC, 9.0 mg/kg (RA853)
[7] = other: intraduodenal bolus injection, 9 mg/kg, pH 3.5, ID, 400 mM CA (pH 3.5), 26 mM LLC, 9.0 mg/kg (RA853), parent Tigecycline peak only

With `CN(C)c1cc(NC(=O)CNC(C)(C)C)c(O)c2c1C[C@H]1C[C@H]3[C@H](N(C)C)C(O)=C(C(N)=O)C(=O)[C@@]3(O)C(O)=C1C2=O` [Tigecycline] the Cmax ([…], RA869, ID, 26 mM LLC only, […], read-out: Cmax, mean) was 105 ng/mL, the AUC(0-t) [1] was 222 ng·h/mL and the Tmax [1] was 15 min. It also gave a bioavailability ([…], RA869, ID, 400 mM CA/26 mM LLC, […], read-out: % F, mean) of 21.6%, a Cmax ([…], RA869, ID, 400 mM CA/26 mM LLC, […], read-out: Cmax, mean) of 246 ng/mL and a concentration at 0 min [2] of 0 ng/mL. It also gave a concentration at 10 min [2] of 31 ng/mL, a concentration at 20 min [2] of 31 ng/mL and a concentration at 30 min [2] of 33 ng/mL. For the same compound, the concentration at 60 min [2] was 0 ng/mL, the concentration at 120 min [2] was 53 ng/mL and the concentration at 240 min [2] was 66 ng/mL. The concentration at 0 min [3] was 0 ng/mL, the concentration at 10 min [3] was 710 ng/mL and the concentration at 20 min [3] was 672 ng/mL. The concentration at 30 min [3] was 601 ng/mL, the concentration at 60 min [3] was 398 ng/mL and the concentration at 120 min [3] was 306 ng/mL. The concentration at 0 min [4] was 0 ng/mL, the concentration at 10 min [4] was 920 ng/mL and the concentration at 20 min [4] was 788 ng/mL. For the same compound, the concentration at 30 min [4] was 618 ng/mL, the concentration at 60 min [4] was 455 ng/mL and the concentration at 120 min [4] was 345 ng/mL. It also gave a concentration at 240 min [4] of 386 ng/mL, a concentration at 0 min [5] of 0 ng/mL and a concentration at 10 min [5] of 0 ng/mL. For the same compound, the concentration at 20 min [5] was 0 ng/mL, the concentration at 30 min [5] was 391 ng/mL and the concentration at 60 min [5] was 440 ng/mL. For the same compound, the concentration at 120 min [5] was 129 ng/mL, the concentration at 0 min [6] was 0 ng/mL and the concentration at 10 min [6] was 1770 ng/mL. It also gave a concentration at 20 min [6] of 1980 ng/mL, a concentration at 30 min [6] of 1350 ng/mL and a concentration at 60 min [6] of 608 ng/mL. For the same compound, the concentration at 120 min [6] was 273 ng/mL, the concentration at 0 min [7] was 0 ng/mL and the concentration at 10 min [7] was 2490 ng/mL. For the same compound, the concentration at 20 min [7] was 2160 ng/mL, the concentration at 30 min [7] was 1760 ng/mL and the concentration at 60 min [7] was 1060 ng/mL. For the same compound, the concentration at 120 min [7] was 683 ng/mL, the bioavailability (other: intraduodenal bolus injection, pH 3.5, ID, 400 mM CA pH 3.5 and 26 mM LLC (RA851, RA853), read-out: absolute % F) was ~22% and the bioavailability (other: intraduodenal injection, 4.8 mg/kg, ID, PBS, 4.8 mg/kg (RA851), relative to 0.64 mg/kg IV, read-out: % F, Mean) was 1.6%. For the same compound, the bioavailability (other: intraduodenal injection, 4.8 mg/kg, pH 3.5, ID, 100 mM CA (pH 3.5), 26 mM LLC, 4.8 mg/kg (RA851), relative to 0.64 mg/kg IV, read-out: % F, Mean) was 10.9%, the bioavailability (other: intraduodenal injection, 9 mg/kg, ID, PBS, 9.0 mg/kg (RA853), without animal RA853-6, relative to 12 mg/kg IV, read-out: % F, Mean) was 2.8% and the Cmax (other: intraduodenal injection, 9 mg/kg, ID, PBS, 9.0 mg/kg (RA853), suspected injection site leakage, read-out: Cmax, one animal not included in the mean) was 1110 ng/mL. It also gave a bioavailability (other: intraduodenal injection, 9 mg/kg, pH 3.5, ID, 100 mM CA (pH 3.5), 26 mM LLC, 9.0 mg/kg (RA853), relative to 12 mg/kg IV, read-out: % F, Mean) of 11.4%, a bioavailability (other: intraduodenal injection, 9 mg/kg, pH 3.5, ID, 400 mM CA (pH 3.5), 26 mM LLC, 9.0 mg/kg (RA853), parent Tigecycline peak only, relative to 12 mg/kg IV, read-out: % F, Mean) of 21.8% and a bioavailability (other: intraduodenal injection, […], RA869, ID, 26 mM LLC only, […], read-out: % F, mean) of 9%. For the same compound, the bioavailability (other: intraduodenal injection, […], RA869, ID, 400 mM CA/26 mM LLC, […], read-out: % F, mean) was ~22% and the bioavailability (other: intraduodenal injection, pH 3.5, ID, 100 mM CA pH 3.5 and 26 mM LLC (RA851, RA853), read-out: absolute % F) was ~11%.
